ChEMBL document CHEMBL1150389, “Synthesis and evaluation of heteroaromatic 6,7-diaryl-2,3,8,8a-tetrahydroindolizin-5(1H)-ones for cytotoxicity against the HCT-116 colon cancer cell line” (Bioorg Med Chem Lett, 2008)
pIC50: −log10 of the molar value.

Test system: HCT-116
Assay: Cytotoxicity against human HCT116 cells
Assay type: functional, cell-based

SMILES | pIC50
COc1ccc(C2=C(c3ccccn3)C(=O)N3CCCC3C2)cc1 (stereo not drawn) | 3.98
CSc1ccc(C2=C(c3ccoc3)C(=O)N3CCCC3C2)cc1 (stereo not drawn) | 5.96
COc1ccc(C2=C(c3ccncc3)C(=O)N3CCCC3C2)cc1 (stereo not drawn) | 4.72
COc1ccc(C2=C(c3ccco3)C(=O)N3CCCC3C2)cc1 (stereo not drawn) | 5.22
COc1ccc(C2=C(c3ccoc3)C(=O)N3CCCC3C2)cc1 (stereo not drawn) | 5.52
CSc1ccc(C2=C(c3ccccc3)C(=O)N3CCCC3C2)cc1 (stereo not drawn) | 6.00
CSc1ccc(C2=C(c3ccncc3)C(=O)N3CCCC3C2)cc1 (stereo not drawn) | 5.22
CSc1ccc(C2=C(c3ccsc3)C(=O)N3CCCC3C2)cc1 (stereo not drawn) | 6.22
CSc1ccc(C2=C(c3cccs3)C(=O)N3CCCC3C2)cc1 (stereo not drawn) | 6.57
CSc1ccc(C2=C(c3ccco3)C(=O)N3CCCC3C2)cc1 (stereo not drawn) | 5.52
COc1ccc(C2=C(c3cccs3)C(=O)N3CCCC3C2)cc1 (stereo not drawn) | 5.30
COc1ccc(C2=C(c3ccsc3)C(=O)N3CCCC3C2)cc1 (stereo not drawn) | 5.82
COc1ccc(C2=C(c3cccnc3)C(=O)N3CCCC3C2)cc1 (stereo not drawn) | 4.10
